In assay [1] the test system is MCF-7 human breast cancer cells. As to the kind of experiment: MTT cell viability assay, MCF-7. The format is cell-based. Conditions: for IC50: Homo sapiens, MCF7, MTT, 72 h, mean ± SD of three experiments; for SI MCF-7: ratio of IC50 values for normal (MCF-10A) and cancer cells (MCF-7). The protocol: (§1) The three cell lines adopted in this work (MCF-7, MDA-MB-231 and MCF-10A) were obtained from the American Type Culture Collection (ATCC, Manassas, VA, USA). MCF-7 human breast cancer cells were cultured in Dulbecco’s modified Eagle’s medium/nutrient mixture Ham F-12 (DMEM/F12), added with 10% fetal bovine serum (FBS) and 100 U mL^−1 penicillin/streptomycin. MDA-MB-231 human breast cancer cells were maintained in DMEM/F12 added with 5% FBS, 1% L-glutamine and 100 U mL^−1 penicillin/streptomycin. MCF-10A human mammary epithelial cells were cultured in DMEM/F12 medium added with 5% horse serum (HS, Thermo Fisher Scientific, Milan, Italy), 100 U mL^−1 penicillin/streptomycin, 0.5 mg mL^−1 hydrocortisone, 20 ng mL^−1 human epidermal growth factor (hEGF), 10 mg mL^−1 insulin, and 0.1 mg mL^−1 cholera enterotoxin (Sigma–Aldrich, Milan, Italy). Cells were cultured at 37 °C in a humidified atmosphere (95% air and 5% CO2) and periodically screened for checking contamination.
(§2) The 3-(4,5-dimethylthiazol-2-y1)-2,5-diphenyltetrazolium Bromide (MTT, Sigma–Aldrich, Milan, Italy) assay was used for determining cell viability. Cells were seeded on forty-eight well plates and cultured in a complete medium. Next, cells were serum-deprived (24 h). Then, cells were exposed to the tested compounds in phenol-red-free medium added with 1% of serum for 72 h. After medium removal, MTT solution was added to each well (0.5 mg/mL) and incubated at 37 °C (2 h). Cells were lysed (DMSO), and the optical density was measured (570 nm) using a microplate reader. Mean absorbance was reported as a percentage versus control, and IC50 values were calculated using GraphPad Prism 8 software (version 8.4.3., GraphPad Inc., San Diego, CA, USA). The selectivity index was obtained by the ratio of IC50 values calculated for normal and cancer cells. Data represent three independent experiments; standard deviations (SD) were reported.

Assay [2] has as its system MCF-10A human mammary epithelial cells. The assay can be described thus: MTT cell viability assay, MCF-10A. The class given is cell-based. As to conditions: 72 h, normal cells, mean ± SD of three experiments. How it is done:
as §1, §2

Assay [3] relates to MDA-MB-231 human breast cancer cells. As to the kind of experiment: MTT cell viability assay, MDA-MB-231. The class given is cell-based. As to conditions: Homo sapiens, MDA-MB-231; MTT, 72 h, mean ± SD of three experiments. How it is done:
as §1, §2

For assay [4], the system named is microtubule network in MDA-MB-231 cells. The assay can be described thus: β-tubulin immunofluorescence. The class given is cell-based, human. Conditions: 1 µM, 24 h. The protocol: Cells grown on glass coverslips in full medium were serum-deprived for 24 h and exposed to 1 for 24 h at its IC50 value concentration. Cells were PBS-washed and fixed (cold methanol, 15 min, −20 °C), then primary antibody in blocking solution was added (4 °C/overnight), as described. The mouse anti-Bid (sc-373939) and anti-β-Actin (69879) and the rabbit anti-β Tubulin (9104) were obtained from Santa Cruz Biotechnology and employed at a 1:100 dilution. Coverslips were washed thrice with PBS, then the secondary antibody Alexa Fluor® 568 conjugate goat-anti-mouse and Alexa Fluor® 488 conjugate goat-anti-rabbit (1:500, Thermo Fisher Scientific, Waltham, MA, USA) was added. Nuclei were DAPI (Sigma Aldrich, Mila, Italy) stained (10 min, 0.2 μg/mL) and PBS washed thrice. For mitochondrial staining, cells were pre-incubated with prewarmed (37 °C) MitoTracker® Deep Red FM probe solution (MitoTracker® Mitochondrion-Selective Probes, Invitrogen European Headquarters, Paisley PA4 9RF, UK) for 20 min (fluorescence excitation = 644, fluorescence emission = 665). A fluorescence microscope (Leica DM 6000) and LAS-X software (Leica Application Suite X, 3.5.7.23225) were used to acquire and process all images.

Assay [5] concerns tubulin. As to the kind of experiment: In vitro tubulin polymerization assay. Conditions: 10 µM; for final OD350 value of tubulin polymerization: control reaction (DMSO) about 0.41. The format is biochemical. The protocol: The tubulin polymerization inhibition was detected using the in vitro Tubulin Polymerization Assay Kit (EMD Millipore Corporation, Burlington, MA, USA), following the procedure previously published. Briefly, polymerization reactions were performed in 70 µL final volumes (60 µL of the 60 µM tubulin in 1xPB-GTP and 10 µL of the test substance dissolved in 1xPB-GTP). Paclitaxel and Vinblastine (both at 10 µM) and 1 (1 µM) were dissolved in DMSO. The turbidity variation was measured every 30 s at 350 nm for 90 min. Turbidity (absorbance) readings were used to determine the extent of polymerization [% inhibition = (1 − A350 sample/A350 control) × 100].

Structures are written as SMILES.

For the molecule `Cc1c2ccncc2c(C)c2c1[nH]c1ccccc12` [Ellipticine], the IC50 came out at 1.3 ± 0.2 µM in assay [1], 1.2 ± 0.3 µM in assay [2] and 1.9 ± 0.1 µM in assay [3]. Moreover, the “SI MCF-7” value in assay [1] is 0.9.
For the molecule `CC(=O)O[C@H]1C(=O)[C@@]2(C)[C@H]([C@H](OC(=O)c3ccccc3)[C@]3(O)C[C@H](OC(=O)[C@H](O)[C@@H](NC(=O)c4ccccc4)c4ccccc4)C(C)=C1C3(C)C)[C@]1(OC(C)=O)CO[C@@H]1C[C@@H]2O` [Paclitaxel], the microtubule network morphology entry in assay [4] is “massive formation of tubulin bundles and bulker fibers”. Further, the values for the IC50 in assay [1], in assay [2] and in assay [3] were 0.013 µM, 0.64 µM and 0.019 µM, respectively. The “SI MCF-7” value in assay [1] came out at 33.7. Besides, the “final OD350 value of tubulin polymerization” value in assay [5] is “about 0.46”.
In the case of `CC[C@]1(O)C[C@@H]2CN(CCc3c([nH]c4ccccc34)[C@@](C(=O)OC)(c3cc4c(cc3OC)N(C)[C@H]3[C@@](O)(C(=O)OC)[C@H](OC(C)=O)[C@]5(CC)C=CCN6CC[C@]43[C@@H]65)C2)C1` [Vinblastine], in assay [4], the microtubule network morphology result is listed as “accumulate in disorganized dotted structures (i.e., crystals)”. For the same molecule, in assay [1], half-maximal inhibition (IC50) was put at 0.0368 µM and the “SI MCF-7” value is recorded as 0.13. For the same molecule, inhibition in assay [2] was half-maximal at 0.0172 µM (IC50). In addition, in assay [5], the “effect on tubulin polymerization reaction” value is given as “strongly inhibited”, the “time to reach the steady state of tubulin polymerization” value was in the range of 35 to 40 min and the “final OD350 value of tubulin polymerization” value is given as “about 0.2”. This molecule returned an IC50 in assay [3] of 0.13 µM.

The values above are taken from PMC12030284, “Anti-Breast Cancer Properties and In Vivo Safety Profile of a Bis-Carbazole Derivative” (Pharmaceutics, 2025).
